The text below walks through data of patent US20080194611A1, “Modulation of Cell Barrier Dysfunction” (priority 2005, published 2008).

The conditions of data set [1]: cited from earlier work.
Data set [2] relates to PA-I lectin/adhesin expression in P. aeruginosa 27853/PLL-EGFP.
The subject of data set [3] is MDCK cells. It is filed as cell-based.
The test system of data set [4] is PA-I lectin/adhesin expression in P. aeruginosa PA27853 and PAO1.
The test system of data set [5] is P. aeruginosa biofilm. In kind it is cell-based, Pseudomonas aeruginosa.
For data set [6], the system named is Human pulmonary microvascular endothelial cell. It is filed as cell-based. Conditions: for effect of agonist alone on endothelial cell barrier function (TER): HPMVEC.
In data set [7] the test system is pyocyanin (PCN) production in P. aeruginosa. In kind it is cell-based, Pseudomonas aeruginosa.
For data set [8] the following is noted: cited from earlier work. The source holds these as a separate data set.
For data set [9] the following is noted: in vivo; cited from earlier work.
The test system of data set [10] is S1P3 receptor. As to the kind of experiment: Tyrosine phosphorylation (transactivation) of the S1P3 receptor. In kind it is cell-based, Human. Particulars: pre-treatment.
Data set [11] relates to P. aeruginosa whole cells and membrane fractions. As to the kind of experiment: ELISA / immunofluorescence binding of cytokines to P. aeruginosa cells and membrane fractions. The arrangement: species or system Pseudomonas aeruginosa. Particulars: for binding to P. aeruginosa membrane fractions: PAO1 membranes, ELISA. The method, then: IFN-γ direct binding to a protein on the surface of P. aeruginosa, in the course of virulence activation, was also investigated. ELISA binding assays were performed by first coating microtiter plates with P. aeruginosa (strain PAO1), then adding recombinant human IFN-γ (rH IFN-γ), followed by biotin-labeled anti-IFN-γ antibody. […] In order to localize the binding site of IFN-γ to P. aeruginosa (PAO1), equal protein concentrations of membrane and cytosol fractions of P. aeruginosa were prepared and coated onto ELISA microtiter plates.
(In general: ELISA stands for enzyme-linked immunosorbent assay.)

Data set [12] has as its system quorum sensing signaling system of P. aeruginosa PAO1. As to the kind of experiment: Quorum sensing activation in PAO1 (rhlI Northern blot, C4-HSL in supernatants). In kind it is cell-based, Pseudomonas aeruginosa.
In data set [13] the target is T1, outer membrane protein OprF (Pseudomonas aeruginosa, UniProt P13794).
T1 sequence (P13794 25-350): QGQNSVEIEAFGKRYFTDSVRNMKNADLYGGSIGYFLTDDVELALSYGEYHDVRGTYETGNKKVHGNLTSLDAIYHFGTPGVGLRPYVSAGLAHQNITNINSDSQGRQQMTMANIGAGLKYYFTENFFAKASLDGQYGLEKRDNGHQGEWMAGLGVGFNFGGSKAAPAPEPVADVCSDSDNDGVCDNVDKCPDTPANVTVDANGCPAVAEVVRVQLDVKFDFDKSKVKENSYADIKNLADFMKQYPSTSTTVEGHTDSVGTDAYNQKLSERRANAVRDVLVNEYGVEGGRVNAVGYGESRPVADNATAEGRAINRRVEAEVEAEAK
In words: Binding of IFN-γ to purified OprF. Conditions: dose-dependent.

For data set [14], the system named is Caco-2 cell monolayers. In words: Barrier dysregulation of Caco-2 monolayers by PA27853 in the presence of IFN-γ. In kind it is cell-based, Human. Conditions: after five hours of incubation. The procedure: In addition, strains were exposed to apical media from Caco-2 cells basolaterally exposed to single and combinations of the various epithelial-derived cytokines. […] Media from Caco-2 cells exposed to various combinations of these cytokines had no effect on PA-I expression. […] Using both ELISA, immunofluorescence microscopy, and flow cytometry, the binding characteristics of IFNγ were determined for both whole bacteria and membrane fractions of P. aeruginosa. […] These effects were also observed with strain PAO1. […] It has been difficult to immunoprecipitate a significant quantity of this protein from PA27853, but it has been determined that this protein can also be immunoprecipitated from E. coli. Next, IFN-γ binding specificity, to whole bacterial cells, was determined, using reiterative binding studies in the presence of various gram-negative bacterial strains, including P. aeruginosa. […] Finally, in order to determine if PA-I was functionally expressed in […] in the presence IFN-γ, PA27853 was inoculated onto Caco-2 cell monolayers in the presence of IFN-γ and the effect on barrier dysregulating dynamics of PA27853 against this cell line were assessed to determine if IFN-γ shifted the dynamics. IFN-γ enhanced the barrier dysregulating effect of PA27853 against the intestinal epithelium after five hours of incubation by about 20%. […]

As for `C[C@H]1CN(C[C@H](Cc2ccccc2)C(=O)NCC(=O)O)CCC1(C)c1cccc(O)c1` (single isomer, unassigned; (+)) [formula (II), (+)-Z-NHCH2 C(O)OH], the solubility in water result in data set [1] is “low solubility in water except at low or high pH conditions”.

With `Nc1ncnc2c1ncn2[C@@H]1O[C@H](COP(=O)(O)OP(=O)(O)O)[C@@H](O)[C@H]1O` [ADP], the PA-I expression result in data set [2] is on record as “no evident inducing effect”.

Consider `Nc1ncnc2c1ncn2[C@@H]1O[C@H](COP(=O)(O)O)[C@@H](O)[C@H]1O` [AMP], for which the PA-I expression result in [2] is “no evident inducing effect”.

In the case of `Nc1ncnc2c1ncn2[C@@H]1O[C@H](COP(=O)(O)OP(=O)(O)OP(=O)(O)O)[C@@H](O)[C@H]1O` [ATP], in [2], the PA-I expression entry was “no evident inducing effect”.

Take `C=CCN1C[C@H](C)N([C@H](c2ccc(C(=O)N(CC)CC)cc2)c2cccc(O)c2)C[C@H]1C` [BW373U86]: in data set [3], the “additional TEER decrease” value was about 25%. Also, in data set [4], the PA-I protein expression entry was “induced a response equal to C4-HSL” and the “response to express PA-I” value is “induce a robust response”. The “PA-I expression judged by fluorescence of the GFP reporter strain” value in [2] is “greatest effect on PA-I expression”. For the same molecule, the biofilm production in [5] is listed as ~180 % of PA27853 induction.

`C[C@@H](O)C(=O)O` [D-lactate]: in data set [2], the “PA-I promoter activity (fluorescence)” value is recorded as “had no effect on PA-I promoter activity”.

As to `C[C@@H](NC(=O)[C@@H](N)Cc1ccc(O)cc1)C(=O)NCC(=O)N(C)[C@@H](Cc1ccccc1)C(=O)NCCO` [DAMGO, [D-Ala^2, N-MePhe^4, Gly^5-ol]], the “effect of agonist alone on endothelial cell barrier function (TER)” value in data set [6] is on record as “induced endothelial cell barrier disruption in a dose-dependent manner”.

For `CC(=O)N[C@H]1C(O)O[C@H](CO)[C@H](O)[C@@H]1O` (some centres unmarked) [GalNac, N-acetylgalactoside], in data set [4] (Caco-2), the “PA-I mRNA increase on dense adherence to Caco-2 cells” value is “nearly completely abolished” and the “PA-I mRNA induced by Caco-2 cell membrane fractions” value is recorded as “attenuated”.

`C[C@H](O)C(=O)O` [L-lactate]: the “PA-I promoter activity (fluorescence)” value in [2] was “had no effect on PA-I promoter activity”.

Consider `COC(=O)c1ccccc1N` [MA, methyl anthranilate], for which, in [7], the “effect on U-50,488-enhanced PCN production” value was “inhibited the ability of U-50,488 to enhance PCN production”.

Turning to `Oc1ccc2c3c1O[C@H]1c4[nH]c5c(c4C[C@@]4(O)[C@@H](C2)N(CC2CC2)CC[C@]314)C[C@@]1(O)[C@H]2Cc3ccc(O)c4c3[C@@]1(CCN2CC1CC1)[C@H]5O4` [NOR, nor-binaltorphimine], the “effect on U-50,488-enhanced PCN production” value in data set [7] is reported as “attenuates enhanced PCN production”. The “dose that completely inhibits U-50,488-enhanced PCN production” value in data set [7] (PAO1) was found to be 200 µM.

Regarding `CC(C)(C)n1nc(-c2ccc(Cl)cc2)c2c(N)ncnc21` [PP2], in data set [6] (Src family kinase inhibition), the “effect on S1P-mediated endothelial cell barrier enhancement” value was “did not affect S1P-mediated endothelial cell barrier enhancement” and the “effect on agonist-induced barrier disruption” value was “blocked agonist-induced barrier disruption”.

As to `Nc1ncnc2c1ncn2[C@@H]1O[C@H](CO)[C@@H](O)[C@H]1O` [adenosine], in [4], the “PA-I expression, compound alone in media” value was “none of the other compounds alone had any effect”. For the same molecule, in data set [2], the PA-I expression entry is “increased”, the “PA-I promoter activity (fluorescence)” value was “enhanced fluorescence” and the “exposure time before PA-I promoter activity was observed” value is recorded as 6 h.

For `OC[C@H]1O[C@@H](n2cnc3c(O)ncnc32)[C@H](O)[C@@H]1O` [inosine], in [2], the “change in PA-I expression over time, magnitude versus adenosine” value is on record as “effect of inosine greater”; the “concentration inducing PA-I expression relative to adenosine” value is given as 10 fold less than adenosine; the “onset of PA-I expression versus adenosine” value is “at an earlier time point and at lower cell densities (OD) compared to adenosine”.

Take `C=CCN1CC[C@]23c4c5ccc(O)c4O[C@H]2C(=O)CC[C@@]3(O)[C@H]1C5` [naloxone]: in data set [8], the “lipid solubility / polarity” value is “fairly lipid-soluble”. In addition, in data set [9], the “crossing of the blood-brain barrier” value is recorded as “crosses the blood-brain barrier easily”. Further, the “effect on MS- and DAMGO-induced endothelial cell barrier disruption” value in data set [6] is given as “blocked”. For the same molecule, in data set [6] (0.1 μM), the “barrier protection with thrombin and LPS challenge” value is listed as “did not display the same endothelial cell barrier-protective effects as MNTX”. In [10], the “effect on morphine- and DAMGO-induced S1P3 receptor transactivation” value is “blocked the effects of morphine and DAMGO”. The “effect on morphine-induced PA-I lectin/adhesin expression” value in data set [2] is recorded as “significantly attenuated”.

For the molecule “EGF: human cytokine tested for membrane binding”, the “binding to P. aeruginosa membrane fractions” value in [11] is “No binding was observed”.

For “IFN-γ: human recombinant interferon gamma”, the C4-HSL synthesis entry in data set [12] (100 ng/ml IFN-γ) was “increased”. Moreover, the rhlI gene transcription entry in data set [12] (Northern blot) is “induced rhl1 transcription”. The pyocyanin production entry in [7] was “increased pyocyanin production”. In data set [13], the “binding to purified OprF” value was “directly binds”. The “binding to whole bacterial cells” value in [11] (PA27853) is given as “high binding affinity”. In data set [11] (PAO1), the “ELISA binding to whole fixed cells” value is given as “avidly bound to whole fixed cells of P. aeruginosa in a dose-dependent manner” and the “bacterial cells that bound IFN-γ (immunofluorescent imaging)” value was 73%±3.2%. Further, in data set [11], the “binding to P. aeruginosa membrane fractions” value is “preferentially bound to membrane fractions”. Also, the “enhancement of barrier dysregulating effect of PA27853” value in data set [14] is recorded as “about 20%”. In addition, in data set [4], the PA-I expression entry was “induced PA-I expression”; the “PA-I expression, compound alone in media” value is recorded as “induced a direct effect on PA-I expression”; the “PA-I mRNA and protein” value is listed as “increased”; the “PA-I protein expression, dose dependence” value was “dose dependent, with the greatest increase seen with 100 ng/ml”. Further, in data set [4], the “lecA (PA-I) mRNA by Northern blot” value is “induced lecA mRNA” and the “response to express PA-I” value was “induce a robust response”. Further, in data set [2], the “PA-I expression (fluorescence)” value was “significant increase in PA-1 expression”.

With IL-4: human cytokine, in [11], the “binding to P. aeruginosa membrane fractions” value is recorded as “No binding was observed”.

As for IL-6: human cytokine, in data set [4], the “PA-I expression, compound alone in media” value is “none of the other compounds alone had any effect”.

IL-8: human cytokine: the “PA-I expression, compound alone in media” value in [4] is reported as “none of the other compounds alone had any effect”.

Take IL-10: human cytokine: the “binding to P. aeruginosa membrane fractions” value in data set [11] is reported as “No binding was observed”.

TGF-β: the “binding to P. aeruginosa membrane fractions” value in data set [11] is on record as “No binding was observed”.

Turning to TNF-α, the “binding to P. aeruginosa membrane fractions” value in data set [11] is “No binding was observed”. The “PA-I expression, compound alone in media” value in [4] is listed as “none of the other compounds alone had any effect”.

On to Thrombin, for which the “effect of agonist alone on endothelial cell barrier function (TER)” value in data set [6] is on record as “induced a rapid transient decrease in endothelial cell barrier function”.

Regarding adenosine deaminase, in [2] (Caco-2), the “PA-I expression after adenosine depletion of HIF-1-α-activated Caco-2 media” value was “even greater increase in PA-I expression”.

For the molecule dynorphin, in data set [7], the PCN production entry is reported as “enhanced PCN production in a dose-dependent manner”.
